# Test results taken from article PMC4663524 (Toxins, 2015).
# Several values for one entry are separate records, joined by “and”; a condition that tells them apart may be missing. Equal entries are not always repeated.
# Experiments:
# [1] = Plasma toxicokinetics after a single intravenous bolus (DONiv, DONSiv); format: in vivo, pigs; conditions: for Vd(area), apparent volume of distribution: DONS 1 or DONS 2, DONSiv 50 µg/kg BW; for peak concentration in plasma (mean of A + B): after DONSiv 50 µg/kg BW; for stability in plasma: after DONSiv injection
# Description: (§1) The experiment was designed as a kinetic study. […] Due to the instability of DONS 2 and 3 upon evaporation to dryness, the standards of the three DONS were dissolved in water acidified with 2% formic acid.
# (§2) A total of 16 castrated male pigs, crossbred German Landrace × Pietrain, were used for these kinetic experiments. After an adaption phase to the balance cages, eight animals underwent surgery per trial. Animals were equipped with two permanent intravenous catheters in the external vena jugularis for serial blood sampling. After surgery the animals were allowed to recover for one day. On test day, zero blood samples had to be collected from pigs before exposure. Zero blood samples served as reference values to which the data after oral or intravenous bolus related. Serial blood samples (10 mL) were drawn prior to feeding and after 15, 30, 60 and 90 min and then after two, three, four, six, eight, 10, 12, and 24 h for pigs receiving compounds by oral administration. For pigs dosed intravenously, shorter time intervals were chosen at the beginning: five, 10, 15, 20, 30, 45 min and then following the same intervals as for oral exposure. For a clear classification in result Table 1, Table 2, Table 3, Table 4, Table 5 and Table 6, we differentiated between IV- (intravenous bolus) and O- (oral bolus) animals. Due to repeated use of individuals it was numbered continuously.
# (§3) Two different injection solutions were prepared for IV administration. […] After weighing, an individual amount was drawn up into syringes with a dose of 50 µg/kg BW. The concentrations of DONS 1, 2, and 3 in DONS standard solution were 3240, 1720, and 7300 µg/mL, respectively. […] Thereafter, the standard was mixed with physiological saline to prepare a 250 µg/mL DONS stock solution. The further handling was similar to DON.
# (§4) For quantitative determination of DONS 1, 2, and 3 in plasma, an HPLC-MS/MS analysis was conducted on an Agilent 1200 (Agilent Technologies, Böblingen, Germany) series HPLC system coupled to a 4000 QTrap mass spectrometer (AB Sciex, Foster City, CA, USA). […] The retention times of DONS 1, 2, and 3 were 2.31, 4.71, and 5.88 min, respectively. Tandem mass spectrometric detection was carried out in negative ion mode after electrospray ionization at 600 °C (ion spray voltage: −4500 V). The method was validated in-house for all analytes based on the guidelines of the FDA and European community. Calibration graphs (0.3–480 ng/mL) were prepared and good linearity was achieved (r ≥ 0.99).
# The LOD amounted to 0.22 ng/mL and the LOQ was 0.72 ng/mL.
# A + B is the initial concentration at t = 0, i.e., C0, α, and β are the rate constant of distribution or elimination phase, respectively, and t the time (h). The non-linear curve fitting module of the Statistica for the Windows^TM operating system (StatSoft Inc., Tulsa, OK, USA) was used to fit the data to Equations (1) and (2).
# Further kinetic parameters were derived from the fitted functions as also described by Prelusky et al.. The half-life was calculated as t1/2α=ln (2)/ka or α for absorption or distribution phase and t1/2β=ln(2)/kel or β for the elimination phase, respectively. […] The apparent volume of distribution by area (Vd(area)) following intravenous application was calculated by Vd(area) = D/AUC⋅t1/2β/ln(2) as an indicator of Vd corresponding to the elimination phase and thus covering large parts of the kinetics.
# In addition, in order to evaluate the decomposition of the IV administered DONS mixture the DON-AUC was divided by the sum of individually estimated AUCs for DONS 1 and DONS 2 and declared as F. In each case, the AUCs were corrected for the administered dose.
# [2] = DONS/DON pattern in standard solution, bolus solution and pig plasma; format: physicochemical; conditions: for Proportion in bolus solution: DONS standard mixed with physiological saline for IV bolus (pH 2.66); for Proportion in standard solution: DONS standard solution (pH 1.56); for Proportion in pig plasma: after IV 50 µg DONS mixture/kg BW
# Description: as §3
# Due to known dependency of DONS stability on pH value, we compared the pH of standard and bolus solutions. The determination was carried out with a pH meter (WTW GmbH, Weilheim, Germany). Both an addition of physiological saline and distilled water caused changes in pH value, and so shifts in DONS ratio took place.
# as §4
# [3] = DONS mixture added to uncontaminated diet
# [4] = cited from earlier work; for pH range of stability: DONS 2: for 24 h
# [5] = Clinical symptoms after intravenous or oral bolus; format: in vivo, pigs; conditions: for clinical symptoms: pigs, after single bolus
# Description: as §1, §2
# [6] = cited from earlier work
# [7] = cited from earlier work; remark: listed apart in the source
# [8] = DONS 1 or DONS 2 in plasma (DON equivalents), DONSiv 50 µg/kg BW, individual pigs IV6-11
# [9] = DONS 1 or DONS 2 in plasma (DON equivalents), DONSiv 50 µg/kg BW, mean, n=6
# [10] = DONS 1 or DONS 2 in plasma (DON equivalents), IV 50 µg DONS mixture/kg BW (DONSiv), individual pigs IV6-11
# [11] = DONS 1 or DONS 2 in plasma, DONSiv 50 µg/kg BW, individual pigs IV6-11
# [12] = DONS 1 or DONS 2 in plasma, DONSiv 50 µg/kg BW, mean, n=6
# [13] = DON in plasma after DONSiv 50 µg/kg BW, individual pigs IV6-11
# [14] = DON in plasma after DONSiv 50 µg/kg BW, mean, n=6
# [15] = DON in plasma, IV 50 µg DON/kg BW, individual pigs IV 1-5, listed as DONiv
# [16] = DON in plasma, IV 50 µg DON/kg BW, mean, n=5
structure (smiles),measurement,setting,value
C[C@H]1[C@H](S(=O)(=O)O)[C@H]2O[C@@H]3[C@H](O)C[C@](C)([C@]24COC1(O)[C@H]4O)[C@]31CO1 [DONS 2],"Vd(area), apparent volume of distribution",[1]; individual pigs IV6-11,0.68 L/kg and 0.96 L/kg and 0.67 L/kg and 1.08 L/kg and 0.53 L/kg and 0.69 L/kg
same,"Vd(area), apparent volume of distribution","[1]; mean, n=6",0.8 L/kg
same,"AUC, area under the curve",[1]; [8],81.5 ng·h/mL and 74.6 ng·h/mL and 80.1 ng·h/mL and 78.1 ng·h/mL and 105.8 ng·h/mL and 94.6 ng·h/mL
same,B,[1]; [8],32.87 ng/mL and 20.05 ng/mL and 29.84 ng/mL and 19.94 ng/mL and 34.75 ng/mL and 25.99 ng/mL
same,A,[1]; [9],52.7 ng/mL
same,"AUC, area under the curve",[1]; [9],85.8 ng·h/mL
same,B,[1]; [9],27.2 ng/mL
same,A,[1]; [10],46.01 ng/mL and 23.41 ng/mL and 43.30 ng/mL and 34.43 ng/mL and 126.49 ng/mL and 42.60 ng/mL
same,"t1/2β, half-life of elimination",[1]; [11],0.77 h (2×) and 0.99 h and 0.74 h and 1.17 h and 0.91 h
same,"α, rate constant of distribution phase",[1]; [11],12.01 h⁻¹ and 4.93 h⁻¹ and 9.99 h⁻¹ and 4.03 h⁻¹ and 17.39 h⁻¹ and 4.41 h⁻¹
same,"β, rate constant of elimination phase",[1]; [11],0.90 1/h (2×) and 0.70 1/h and 0.93 1/h and 0.59 1/h and 0.76 1/h
same,"α, rate constant of distribution phase",[1]; [12],8.8 h⁻¹
same,"β, rate constant of elimination phase",[1]; [12],0.8 h⁻¹
same,peak concentration in plasma (mean of A + B),[1],79.9 ng/mL
same,stability in plasma,[1],stable in plasma
same,Proportion in bolus solution,[2],10.69%
same,Proportion in standard solution,[2],14.03%
same,Proportion in pig plasma,[2],28.25%
same,detection in plasma after oral DONSpo,[3],"rarely, traces of DONS 1 and 2 (<LOQ)"
same,pH range of stability,[4],2–7
same,pH values at which back-formation or degradation to DON is observed,[4],8–10
"CC1=C[C@H]2O[C@@H]3[C@H](O)C[C@](C)([C@@]2(CO)[C@H](O)C1=O)[C@]31CO1 [DON, deoxynivalenol]",mean maximum concentration of DON in plasma (A + B),[1]; DON after DONSiv 50 µg/kg BW,17.33 ng/mL
same,B,[1]; [13],7.13 ng/mL and 5.49 ng/mL and 5.08 ng/mL and 2.91 ng/mL and 6.48 ng/mL and 3.17 ng/mL
same,"F, release rate of DON from DONS",[1]; [13],12.5% and 17.3% (2×) and 18.2% and 23.8% and 15.3%
same,"α, rate constant of distribution phase",[1]; [13],5.02 h⁻¹ and 3.23 h⁻¹ and 4.83 h⁻¹ and 1.72 h⁻¹ and 3.99 h⁻¹ and 2.25 h⁻¹
same,"β, rate constant of elimination phase",[1]; [13],0.32 h⁻¹ and 0.22 h⁻¹ and 0.34 h⁻¹ and 0.17 h⁻¹ and 0.29 h⁻¹ and 0.27 h⁻¹
same,A,[1]; [14],12.29 ng/mL
same,B,[1]; [14],5.04 ng/mL
same,"F, release rate of DON from DONS",[1]; [14],17.37%
same,"α, rate constant of distribution phase",[1]; [14],3.51 h⁻¹
same,"β, rate constant of elimination phase",[1]; [14],0.27 h⁻¹
same,A,"[1]; DON in plasma after IV 50 µg DONS mixture/kg BW (DONSiv), individual pigs IV6-11",12.44 ng/mL and 8.40 ng/mL and 17.13 ng/mL and 12.74 ng/mL and 12.50 ng/mL and 10.51 ng/mL
same,A,"[1]; DON in plasma, IV 50 µg DON/kg BW, two-compartment fit, individual pigs IV 1-5, listed as DONiv",136.4 ng/mL and 624.9 ng/mL and 121.9 ng/mL and 56.2 ng/mL and 74.5 ng/mL
same,B,[1]; [15],96.5 ng/mL and 83.6 ng/mL and 73.5 ng/mL and 64.5 ng/mL and 84.1 ng/mL
same,"α, rate constant of distribution phase",[1]; [15],7.35 h⁻¹ and 18.74 h⁻¹ and 13.71 h⁻¹ and 3.88 h⁻¹ and 6.29 h⁻¹
same,"β, rate constant of elimination phase",[1]; [15],0.36 h⁻¹ and 0.33 h⁻¹ and 0.35 h⁻¹ and 0.34 h⁻¹ and 0.38 h⁻¹
same,A,[1]; [16],202.8 ng/mL
same,B,[1]; [16],80.5 ng/mL
same,"α, rate constant of distribution phase",[1]; [16],9.99 h⁻¹
same,"β, rate constant of elimination phase",[1]; [16],0.35 h⁻¹
same,number of retching and vomiting episodes,[5]; IV 50 µg DON/kg BW,between three and nine times
same,time of retching and vomiting after bolus,[5]; IV 50 µg DON/kg BW,6 to 16 min
same,clinical symptoms,[5],sickness and emesis within minutes
same,clinical symptoms,[5]; listed as DONiv,retching and vomiting
same,Proportion in bolus solution,[2],19.26%
same,Proportion in standard solution,[2],0%
same,Proportion in pig plasma,[2],10.45%
same,initial concentration A + B of DON at t = 0,[6]; IV DON,46.2–139.9 ng/mL plasma
same,maximum concentration cmax,"[6]; oral, DON in wheat",15.2 ng/mL
same,tmax,"[6]; oral, DON in wheat",1.65 h
same,total DON bioavailability,"[6]; single oral dose, DON-contaminated wheat",91.5% ± 27.4%
same,share of orally-administered DON absorbed in the stomach and the first third of the small intestine,[7],~90%
CC12CC3(O)[C@@H]4O[C@H]([C@H]1S(=O)(=O)O)[C@](CO)([C@H](O)C2=O)[C@@]3(C)C[C@H]4O [DONS 1],"Vd(area), apparent volume of distribution",[1]; individual pigs IV6-11,0.35 L/kg and 0.48 L/kg and 0.51 L/kg and 0.37 L/kg and 0.44 L/kg and 0.42 L/kg
same,"Vd(area), apparent volume of distribution","[1]; mean, n=6",0.4 L/kg
same,"AUC, area under the curve",[1]; [8],179.7 ng·h/mL and 143.2 ng·h/mL and 167.6 ng·h/mL and 187.8 ng·h/mL and 163.4 ng·h/mL and 167.8 ng·h/mL
same,B,[1]; [8],74.30 ng/mL and 55.10 ng/mL and 61.46 ng/mL and 75.58 ng/mL and 67.17 ng/mL and 69.69 ng/mL
same,A,[1]; [9],104.2 ng/mL
same,"AUC, area under the curve",[1]; [9],168.2 ng·h/mL
same,B,[1]; [9],67.2 ng/mL
same,A,[1]; [10],86.78 ng/mL and 61.27 ng/mL and 60.09 ng/mL and 257.42 ng/mL and 79.19 ng/mL and 80.20 ng/mL
same,"t1/2β, half-life of elimination",[1]; [11],0.87 h and 0.96 h (2×) and 1.18 h and 0.99 h and 0.98 h
same,"α, rate constant of distribution phase",[1]; [11],11.35 h⁻¹ and 13.56 h⁻¹ and 4.94 h⁻¹ and 20.41 h⁻¹ and 4.55 h⁻¹ and 10.96 h⁻¹
same,"β, rate constant of elimination phase",[1]; [11],0.80 1/h and 0.72 1/h (2×) and 0.59 1/h and 0.70 1/h and 0.71 1/h
same,"α, rate constant of distribution phase",[1]; [12],11.0 h⁻¹
same,"β, rate constant of elimination phase",[1]; [12],0.7 h⁻¹
same,peak concentration in plasma (mean of A + B),[1],171.4 ng/mL
same,stability in plasma,[1],stable in plasma
same,Proportion in bolus solution,[2],69.75%
same,Proportion in standard solution,[2],26.43%
same,Proportion in pig plasma,[2],59.49%
same,detection in plasma after oral DONSpo,[3],"rarely, traces of DONS 1 and 2 (<LOQ)"
same,pH range of stability,[4],2–10
